# Source: patent US11553718B2, “Mic reduction with lithium ions” (priority 2014, dated 2023)
# Tests used:
# bacterial strain rOmyAK = test: microbe, parasite or virus in culture; type: cell-based, Pseudomonas mendocina; settings: for bacterial count: rOmy AK; for MIC ratio (MICwithout Li/MICLi) / MIC active/aequeous: rOmyAK
# Method: (§1) When not otherwise indicated, the quoted bacterial counts (values are in cfu/plate) in the Tables here below are determined after 2 days following plate-out and incubation at 30° C. The counting method was as follows. The aqueous preparations were stirred well with a cotton swap (e.g. Applimed SA, No. 1102245); the excess aqueous preparation was removed by dipping it gently to the side of the aqueous preparation container, leaving approximately 200 mg of aqueous preparation on the swap. […] TSA plates were then incubated for 48 h at 30° C. Colony forming units (cfu) were then counted and reported as cfu/plate. Counts from 100 to 999 cfu per plate are reported as ≥100 cfu/plate. Counts of 1000 cfu and above per plate are reported as ≥1000 cfu/plate. Yeast and moulds were counted as described for bacteria with the following exceptions, a) Sabouraud Dextrose Agar (SDA) containing Chloramphenicol (e.g. heipha Dr. Miller GmbH, No. 1460030020) were used instead of TSA, b) SDA plates were incubated at 25° for 5 days and c) cfu were counted and reported after 48 h and 5 days of incubation. Yeast and moulds counts from 20 to 99 cfu per plate are reported as […]. Yeast and moulds counts of 100 cfu and above per plate are reported as >100 cfu/plate.
# (§2) For determining the MIC, the tested microorganism, i.e. the strain of bacteria and/or strain of yeast and/or strain of mould, were freshly grown until the end of the logarithmic growth phase according to the requirements of the individual species to a density of approximately 10^7-10^9 cells/ml.
# (§3) For example, fresh bacteria cultures of the bacteria E. coli, e.g. E. coli ATCC 11229, and S. aureus, e.g. S. aureus strains DSMZ 346, were prepared by inoculation of 3 ml liquid growth media (tryptic soy broth, e.g. Fluka Cat. No. 22092) from a stock culture and incubation for 16 to 20 h at 30° C. with agitation at 150 rotations per minutes (rpm) leading to a cell density of approximately 2×10^8 cells/ml. Fresh cultures of resistant bacteria, adapted to the conditions in biocide containing CaCO3 slurries, were prepared by inoculation of 50 g 75 wt.-% solid content CaCO3 slurry from a stock culture and incubated for 14 to 28 days at 30° C. without agitation.
# (§4) Lithium ions were added to the aqueous preparation (e.g. CaCO3 slurry) by the addition of a water soluble lithium salt. For example to 50 g CaCO3 slurry with a solid content of 75% (w/w) 1.177 ml of a 74 g/Li2CO3 suspension was added and mixed well leading to a lithium ion concentration of 172 mM or 1205 ppm in the water phase. As another example to 50 g CaCO3 slurry with a solid content of 75 wt.-% (w/w) 0.04 ml of a 292 g/L Li3Citrate (2M) solution was added and mixed well leading to a lithium ion concentration of 19 mM or 135 ppm in the water phase.
# (§5) The biocide to be tested was added to the aqueous preparation (e.g. CaCO3 slurry with or without lithium ions) in increasing concentrations starting from 0 ppm (without biocide). The concentrations ranged from concentrations higher than recommended by the supplier, to very low amounts (as low as 1 ppm or lower). Of each biocide concentration a 3 ml sample of aqueous preparation was combined with 20 μl fresh bacterial culture.
# (§6) All samples were incubated at 30° C. for 24 h. After incubation colony forming units (cfu) per plate (cfu/plate) were determined as described above under bacterial count.
# (§7) The MIC for bacteria is defined as the lowest concentration of biocide in the presence or absence of lithium ion amongst all samples tested, where the bacterial concentration dropped below 100 cfu/plate. The MIC for yeast and mould is defined as the lowest concentration of biocide in the presence or absence of lithium ion amongst all samples tested, where the microbial concentration dropped below 20 cfu/plate.
# E. coli strain ATCC11229 = test: MIC determination / bacterial count in CaCO3 slurry with or without lithium ions; type: cell-based; settings: E. coli; Li^+ 197 mM (1380 ppm), Li2CO3
# Method: as §1, §2, §3, §4, §5, §6, §7
# [1] = tested on: S. aureus strain DSMZ 346; test: as above; type: cell-based; settings: S. aureus; Li^+ 329 mM (2305 ppm), Li2CO3
# Method: as §1, §2, §3, §4, §5, §6, §7
# rGDA/IT (rGDA-IT) strain = test: MIC determination in CaCO3 slurry with or without lithium ions; type: cell-based, Pseudomonas mendocina; settings: Li^+ 197 mM (1380 ppm), Li2CO3
# Method: as §1, §2, §3, §4, §5, §6, §7
smiles,measurement,setting,value
"Cn1sccc1=O [MIT, 2-Methyl-2H-isothiazolin-3-one]",bacterial count,"bacterial strain rOmyAK; 18 ppm MIT, 329 mM Li^+",≥100 cfu/plate
same,bacterial count,"bacterial strain rOmyAK; 18 ppm MIT, no Li^+",≥1000 cfu/plate
same,bacterial count,"bacterial strain rOmyAK; 35 ppm MIT, 329 mM Li^+",68 cfu/plate
same,bacterial count,"bacterial strain rOmyAK; 35 ppm MIT, no Li^+",≥100 cfu/plate
same,bacterial count,"bacterial strain rOmyAK; 106 ppm MIT, 329 mM Li^+",0 cfu/plate
same,bacterial count,"bacterial strain rOmyAK; 106 ppm MIT, no Li^+",0 cfu/plate
same,MIC ratio (MICwithout Li/MICLi),"bacterial strain rOmyAK; Li^+ 197 mM (1380 ppm), Li2CO3",1
same,MIC active/aequeous,"bacterial strain rOmyAK; Li^+ 329 mM (2305 ppm), Li2CO3",35 ppm
same,MIC ratio (MICwithout Li/MICLi),"bacterial strain rOmyAK; Li^+ 329 mM (2305 ppm), Li2CO3",3
same,MIC ratio (MICwithout Li/MICLi),"bacterial strain rOmyAK; Li^+ 423 mM (2964 ppm), Li2CO3",6
same,MIC active/aequeous,bacterial strain rOmyAK; no Li^+,106 ppm
same,MIC ratio (MICwithout Li/MICLi),E. coli strain ATCC11229,>2.5
same,MIC ratio (MICwithout Li/MICLi),[1],>5
same,MIC ratio (MICwithout Li/MICLi),rGDA/IT (rGDA-IT) strain,1.67
